From patent US20080182835A1 (priority 2006, published 2008)
Where two headings read alike, the source gives them in different places.

Legend:
[1] = test system: Sindbis virus; test: Sindbis virus plaque formation assay in BHK cells; assay type: cell-based, Sindbis virus (633-EGFP strain); settings: 48 hours
[2] = test system: Sindbis virus; test: Log(PFU) per percent cell survival, plaque counts combined with CellTiter96 survival of infected BHK cells; assay type: cell-based; settings: with increase in concentration, FIG. 4
Description: Because live cell counts will decrease with increasing CoHex complex due to cytotoxicity of the cells and virus replication, but increase due to the anti-viral protection of CoHex, the plaque counts may have decreased due to the fact that there were less live cells available to count. […] The data of FIG. 3C was obtained using the CellTiter96 cell proliferation assay described above for the CoHex cytotoxicity data (i.e., with respect to FIG. 1) in which the cells were further infected with 5 plaque forming units per cell of Sindbis virus in DMEM containing 2% FBS in the absence or presence of various concentrations of Co(NH3)6, then assayed periodically.
Therefore, the fraction cell survival data of FIG. 3C was combined with the log pfu data of FIG. 3A to generate a ratio, Log(PFU) per percent cell survival, which although not a physical measure, is a general model of viruses in surviving cells.

[3] = test system: baby hamster kidney (BHK) cells; test: Cytotoxicity, CellTiter96 Proliferation Assay on BHK cells; assay type: cell-based
Procedure: The cytotoxicity of Co(NH3)6 (Structure IV) was assessed by monitoring its ability to inhibit proliferation of baby hamster kidney (BHK) cells. BHK cells were cultured as exponentially growing subconfluent monolayers in complete growth medium, particularly Dulbecco's Modified Eagle's Medium (DMEM) supplemented with 1% (v/v) antibiotic/antimycotic agent and 10% (v/v) heat inactivated fetal bovine serum (FBS). Cells were grown in either T25 or T75 flasks (Acton, Mass.) and incubated at 37° C. under 5% CO2 atmosphere. A subculture was performed every 3-4 days.
The in vitro toxicity of Co(NH3)6 was determined using the CellTiter96® Proliferation Assay (Promega, Madison, Wis.). This quantitative calorimetric assay is based upon the enzymatic conversion of a tetrazolium salt substrate into a blue formazan product with a maximum absorbance at 570 nm. […] At the assay endpoint, the absorbance at 570 nm is directly proportional to the number of viable cells. To assess compound toxicity, BHK cells were seeded into the wells of a 96-well tissue culture microtiter plate (2×10^4 cells/well) and cultured overnight at 37° C. in a humidified atmosphere containing 5% CO2. The next day, Co(NH3)6 was diluted into tissue culture media (at final concentrations ranging from 0 to 5 mM) and incubated with the cells for 72 hrs. Triplicate wells were included for each concentration. To control for any contaminating absorbance due to the compounds, control wells containing no cells were included at each compound concentration (“no cell” wells). At the end of the 72 hour culture period, 15 μL of tetrazolium substrate was added to each well and the plate was returned to the incubator for 4 hours to allow viable cells to convert the substrate into the formazan product. At the end of the 4 hour incubation period, 100 μL of solubilization solution was added to each well and the plate was subsequently incubated overnight to completely solubilize the contents of each well to a homogeneous color. The absorbance within each of the “no cell” wells was subtracted from the absorbance measured in the corresponding wells containing cells for each concentration of Co(NH3)6.

[4] = Ligand exchange with free histidine by UV-VIS and NMR; assay type: physicochemical; settings: ratio 100:1 histidine to Co(NH3)6, results not shown
[5] = test system: Adenovirus; test: Flow cytometry propidium iodide viability of Adenovirus-infected A549 cells; assay type: cell-based; settings: 6 hour pretreatment, 48 hours post infection, increasing concentration up to 0.0621 mM
Description: Another example of antiviral activity is an in vitro model of a double stranded DNA (dsDNA) virus infection, Adenovirus. […] The same flow cytometry procedure discussed above for Sindbis viral infection in BHK cells was used for Adenovirus viral infection in A549 cells.

[6] = test system: Sindbis virus
[7] = test system: mRNA luciferase template; test: Rabbit Reticulocyte Lysate Translation System, luciferase mRNA translation (Western blot); assay type: biochemical; settings: same test, CoCyclen data not provided
Procedure: CoHex is capable of preventing translation of a messenger RNA (mRNA) in vitro. The ability Co(NH3)6 to inhibit translation of an mRNA luciferase template was assessed using the Rabbit Reticulocyte Lysate Translation System (Promega) according to the manufacturer's instructions. In the example discussed below, Co(NH3)6 in various concentrations was incubated with the […] for 10 minutes before the addition of the mRNA template to the translation lysate. Translated luciferase protein was run on a 10% SDSPAGE gel for 45 min at 130 V and detected by Western blot on a PVDF membrane. Proteins were detected using a streptavidinalkaline phosphatase conjugate and Western Blue substrate according to the instructions in the Transcend Non-Radioactive Translation Detection System (Promega). In FIG. 2, Lane 1 represents the incubation of 0.01 mM Co(NH3)6. Lane 2 represents the incubation of 0.02 mM Co(NH3)6. Lane 3 represents the incubation of 0.05 mM Co(NH3)6. Lane 4 represents the incubation of 0.1 mM Co(NH3)6. Lane 5 represents the incubation of 0.2 mM Co(NH3)6. Lane 6 is a positive control in which no Co(NH3)6 is added. Lane 7 is a negative control in which no translation occurs. The lanes marked M are molecular weight marker lanes. […]

**Q.** With Co(NH3)6 as the substance, how does the IC50 ([1]; BHK cells, read-out: IC50, inhibition of Sindbis virus plaque formation) read?
**A.** ~100 µM

**Q.** What about the “maximal inhibition of virus replication, decrease in pfu over control” value ([1]; at about 2.5 mM) of the same substance?
**A.** about 2.5 log

**Q.** What about the “Log(PFU) per percent cell survival” value [2] of the same substance?
**A.** significant decrease in viral infection

**Q.** What about the cell viability ([3]; 72 hrs, at 2.5 mM) of the same substance?
**A.** about 80%

**Q.** What about the CC50 ([3]; 72 hrs, from FIG. 1, read-out: 50% cytotoxicity concentration (CC50)) of the same substance?
**A.** ~3200 µM

**Q.** And the “toxicity compared with cis-Platin” value ([3]; FIG. 1)?
**A.** much less toxic

**Q.** What about the “toxicity (inhibition of cellular proliferation)” value ([3]; concentrations below 0.3 mM) of the same substance?
**A.** no significant toxicity

**Q.** What about the “toxicity (inhibition of cellular proliferation)” value ([3]; concentrations below 2.5 mM) of the same substance?
**A.** only mildly toxic

**Q.** And the “concentration of maximum toxicity” value ([3]; highest concentration tested)?
**A.** 5000 µM

**Q.** What about the “exchange of ammonia groups with free histidine” value [4] of the same substance?
**A.** does not appear to have labile ligands

**Q.** What about the “survival rate of Adenovirus-infected A549 cells” value [5] of the same substance?
**A.** increase in survival rate

**Q.** And the “selectivity ratio CC50/IC50” value ([6]; Sindbis virus over BHK cells)?
**A.** about 25

**Q.** And the “percentage of EGFP-positive (Sindbis-infected) cells” value ([6]; at 0.15 mM)?
**A.** distinct decrease

**Q.** What about the “effect of timing of administration on inhibition of EGFP expression” value ([6]; pretreatment, co-infection or early post-treatment) of the same substance?
**A.** equally effective

**Q.** What about the IC50 ([6]; read-out: IC50, inhibition of EGFP expression, 6 hours pretreatment, 48 hours post infection, moi 5) of the same substance?
**A.** 130 ± 40 µM

**Q.** What about the “inhibition of protein translation relative to conventional CoCyclen structure” value [7] of the same substance?
**A.** about 10 times
